Measured values taken from US9290427B2, “Anti-invasive compounds” (Universiteit Gent, priority 2012, dated 2016).
Where two headings read alike, the source gives them in different places.

Legend:
[1] = tested on: MCF-7/6 mammary carcinoma cells; set-up: unit not given here; details: training set compounds 1-34, Indo-Belgian screening program; class = log cmin, lowest concentration with invasion grade I or II; cited from earlier work
[2] = tested on: MCF-7/6 mammary carcinoma cells; assay: chick heart invasion assay; type: cell-based, human; set-up: unit not given here; details: for anti-invasive activity class act.: validation set, in vitro; for Actual in vitro activity class: compounds 37-51, Table 11; for Actual class: training set compounds 37-51, class = log cmin, lowest concentration with invasion grade I or II
From the text: “Anti-invasive” or “anti-invasive activity” is the ability to inhibit the invasiveness of tumor cells. Invasion by tumor cells is defined as the progressive occupation and destruction of their environment, and is the result of matrix degradation and directional cell motility. Anti-invasive activity of a compound is the ability to inhibit or block invasion, and can be assessed by counting the number of invading cells, by the depth of their invasion and/or by the amount of environmental destruction. Many assays in vitro can be applied to test for anti-invasive activity (for a complete list see Bracke et al. 2008). The three most popular ones are: • Chick heart invasion assay (Bracke et al., 2001, see details below). The cut-off value is between grade II (non-invasive) and grade III (invasive). […] Collagen gels, prepared on the bottom of plastic wells are covered with a test cell suspension, and incubated with liquid culture medium for 24 h. Invasion is evaluated with an inverted phase-contrast microscope, and is based on the percentage of cells showing extensions in the gel. […] Matrigel is a mixture of basement membrane components, and is applied as a semi-solid layer on top a filter with pores allowing the transgression of cells. The test cell suspension is seeded on top of the gel, and incubated for 1 day in a two-compartment chamber system. Invasion is then evaluated via the percentage of cells that are attached to the lower side of the filter.
In the chick heart invasion assay cancer cells are confronted with a fragment of normal tissue, so as not to neglect the contribution of the host tissue in the micro-ecosystem that governs tumor behavior. As such, precultured heart tissue fragments (PHFs), dissected from 9-day-old chicken embryos, may be confronted with aggregates of human invasive MCF-7/6 mammary carcinoma cells in the presence of a certain concentration of a test compound. After eight days, the interaction between the cancer cells and the PHF is evaluated histologically and classified along a 5-grades subjective scale (Bracke et al., 2001). Grades III and IV are typical for invasion, while grades 0, I and II correspond to absence of invasion. Compounds that inhibit invasion of confronting cancer cells i.e. from III/IV to 0/I/II, are determined as anti-invasive. Possible alternative assays generally known in the art are the type I collagen invasion assay, wound healing assay and the matrigel invasion assay.
“Anti-invasive” refers to the ability to inhibit invasion of the tumor or cancer cell into surrounding tissue (within or outside the organ of origin). […] This screening method confronts cancer cells with a fragment of normal tissue, so as not to neglect the contribution of the host tissue in the micro-ecosystem that governs tumor behavior. The interaction between the cancer cells and the normal tissue is evaluated histologically and classified along a 5-grades subjective scale. Grades III and IV are typical for invasion, while grades 0, I and II correspond to absence of invasion. Compounds that inhibit invasion of confronting cancer cells i.e. from III/IV to 0/I/II, are determined as anti-invasive. Possible alternative assays generally known in the art are the type I collagen invasion assay and the Matrigel invasion assay.
The potency of these molecules had been evaluated by means of the chick heart invasion assay, as described herein before.

In the case of `COc1cc(OC)c(C(=O)/C=C/c2ccccc2)c(O)c1OC` [Compound 17, (2E)-3-phenyl-1-(2′-hydroxy-3′,4′,6′-trimethoxyphenyl)propenone], the Actual class [1] is given as 2 (about 100).
In the case of `CC(C)=CCn1cc(C(=O)/C=C/c2ccc(Cl)cc2)c2ccccc21` [Compound 85, (2E)-3-(4-Chlorophenyl)-1-[1-(3-methylbut-2-enyl)-1H-indol-3-yl]propenone], the “anti-invasive activity class act.” value [2] is reported as “≧2 (about 100)”.
In the case of `COc1cc(O)c(C(=O)/C=C/c2ccccc2)c(OC)c1OC` [Compound 21, (2E)-3-phenyl-1-(6′-hydroxy-2′,3′,4′-trimethoxyphenyl)propenone], the Actual class [1] is listed as 0 (about 1).
In the case of `COc1ccc(/C=C/C(=O)c2cc(C(c3ccccc3)c3ccccc3)c(OC)cc2O)cc1` [Compound 1, (2E)-1-(5-Benzhydryl-2-hydroxy-4-methoxyphenyl)-3-(4-methoxyphenyl)propenone], the Actual class [1] is given as 3 (>100).
In the case of `C=CCOc1c(OC)cc(O)c(C(=O)/C=C/c2ccc(O)cc2)c1OC` [Compound 28, (2E)-3-(4-hydroxyphenyl)-1-(6′-hydroxy-2′,4′-dimethoxy-3′-(2-propenyloxy)phenyl)propenone], the Actual class [1] is listed as 1 (about 10).
In the case of `COc1ccc(C(=O)/C=C/c2cccc(Oc3ccccc3)c2)cc1OC` [Compound 32, (2E)-3-(3-phenoxyphenyl)-1-(3′,4′-dimethoxyphenyl)propenone], the Actual class [1] is listed as 3 (>100).
For `COc1ccc(C(=O)/C=C/c2ccc(Cl)cc2)cc1` [Compound 52, (2E)-3-(4-chlorophenyl)-1-(4-methoxyphenyl)prop-2-en-1-one], the “anti-invasive activity class act.” value [2] was −2 (about 0.01).
In the case of `COc1cc(OC)c(/C=C/C(=O)c2c(OC)cccc2OC)c(OC)c1` [Compound 47, (2E)-3-(2,4,6-Trimethoxyphenyl)-1-(2,6-dimethoxyphenyl)propenone], the “Actual in vitro activity class” value [2] is reported as 0 (about 1) and the Actual class [2] is reported as 0 (about 1).
In the case of `COc1cc(O)c(C(=O)/C=C/c2cccc([N+](=O)[O-])c2)cc1C(c1ccccc1)c1ccccc1` [Compound 89, (2E)-1-(5-Benzhydryl-2-hydroxy-4-methoxy-phenyl)-3-(3-nitro-phenyl)-propenone], the “anti-invasive activity class act.” value [2] is reported as “≧3 (>100)”.
In the case of `COc1ccc(C(=O)/C=C/c2cc3ccccc3o2)cc1` [Compound 79], the “anti-invasive activity class act.” value [2] is reported as 2 (about 100).
For `COc1ccc(C(=O)/C=C/c2cccc(OC)c2)cc1` [Compound 41, (2E)-3-(3-Methoxyphenyl)-1-(4-methoxyphenyl)propenone], the “Actual in vitro activity class” value [2] was 0 (about 1) and the Actual class [2] was 0 (about 1).
With `COc1ccc(C(=O)/C=C/c2cc(OC)c(OC)cc2OC)cc1` [Compound 44, (2E)-3-(2,4,5-Trimethoxyphenyl)-1-(4-methoxyphenyl)propenone] the “Actual in vitro activity class” value [2] was 0 (about 1) and the Actual class [2] was 0 (about 1).
For `C=CCn1cc(C(=O)/C=C/c2ccc(Cl)cc2)c2ccccc21` [Compound 84], the “anti-invasive activity class act.” value [2] was “≧2 (about 100)”.
For `O=C(/C=C/c1cccc(F)c1)c1ccc(F)cc1` [Compound 53, (2E)-3-(3-Fluorophenyl)-1-(4-fluorophenyl)propenone], the “anti-invasive activity class act.” value [2] was −1 (about 0.1).
For `O=C(C=Cc1ccc(F)cc1)c1ccco1` [Compound 68, 1-(2-Furyl)-3-(4-fluorophenyl)propenone], the “anti-invasive activity class act.” value [2] was 1 (about 10).
For `O=C(/C=C/c1ccco1)c1ccccc1` [Compound 72, (2E)-3-Furan-2-yl-1-phenylpropenone], the “anti-invasive activity class act.” value [2] was “>=2 (about 100)”.
In the case of `COc1cccc(OC)c1C(=O)/C=C/c1ccco1` [Compound 76, (2E)-3-(2-Furanyl)-1-(2,6-dimethoxyphenyl)propenone], the “anti-invasive activity class act.” value [2] is reported as −1 (about 0.1).
With `COc1ccc(C(=O)/C=C/c2ccc(F)cc2)cc1` [Compound 48, (2E)-3-(4-Fluorophenyl)-1-(4-methoxyphenyl)propenone] the “Actual in vitro activity class” value [2] was 0 (about 1) and the Actual class [2] was 0 (about 1).
For `COc1cc(C(=O)/C=C/c2ccco2)cc(OC)c1OC` [Compound 75, (2E)-3-(2-Furanyl)-1-(3,4,5-trimethoxyphenyl)propenone], the “anti-invasive activity class act.” value [2] was −1 (about 0.1).
In the case of `COc1cc(OC)c(C(=O)/C=C/c2cc(OC)c(OC)cc2OC)c(OC)c1` [Compound 42, (2E)-3-(2,4,5-Trimethoxyphenyl)-1-(2,4,6-trimethoxyphenyl)propenone], the “Actual in vitro activity class” value [2] is reported as 1 (about 10) and the Actual class [2] is reported as 1 (about 10).
In the case of `O=C(/C=C/c1ccc(F)cc1)c1ccc(O)cc1` [Compound 58, (2E)-3-(4-Fluorophenyl)-1-(4-hydroxyphenyl)propenone], the “anti-invasive activity class act.” value [2] is reported as 1 (about 10).
For `O=C(/C=C/c1ccoc1)c1ccc(F)cc1` [Compound 77, (2E)-3-(3-Furanyl)-1-(4-fluorophenyl)propenone], the “anti-invasive activity class act.” value [2] was −1 (about 0.1).
For `COc1ccc(/C=C/C(=O)c2ccc(OC)cc2)cc1` [Compound 40, (2E)-3-(4-Methoxyphenyl)-1-(4-methoxyphenyl)propenone], the “Actual in vitro activity class” value [2] was 1 (about 10) and the Actual class [2] was 1 (about 10).
In the case of `COc1ccc(C(=O)/C=C/c2ccccc2)cc1` [Compound 38, (2E)-3-phenyl-1-(4-methoxyphenyl)propenone], the “Actual in vitro activity class” value [2] is reported as 1 (about 10) and the Actual class [2] is reported as 1 (about 10).
In the case of `COc1ccc(C(=O)/C=C/c2c(OC)cc(OC)cc2OC)cc1` [Compound 45, (2E)-1-(4-methoxyphenyl)-3-(2,4,6-trimethoxyphenyl)prop-2-en-1-one], the “Actual in vitro activity class” value [2] is reported as −1 (about 0.1) and the Actual class [2] is reported as −1 (about 0.1).
For `COc1ccc(C(=O)C=Cc2ccco2)cc1` [Compound 74, 3-Furan-2-yl-1-(4-methoxyphenyl)propenone], the “anti-invasive activity class act.” value [2] was 2 (about 100).
With `O=C(/C=C/c1cc2ccccc2o1)c1ccc(F)cc1` [Compound 78, (2E)-3-(2-Benzofuranyl)-1-(4-fluorphenyl)propenone] the “anti-invasive activity class act.” value [2] was 2 (about 100).
With `O=C(/C=C/c1ccco1)c1ccc(F)cc1` [Compound 73, (2E)-3-(2-Furanyl)-1-(4-fluorophenyl)propenone] the “anti-invasive activity class act.” value [2] was 2 (about 100).
In the case of `COc1ccc(/C=C/C(=O)c2ccccc2)cc1` [Compound 39, (2E)-3-(4-Methoxyphenyl)-1-phenylpropenone], the “Actual in vitro activity class” value [2] is reported as 1 (about 10) and the Actual class [2] is reported as 1 (about 10).
With `CC(C)=CCOc1ccc(C(=O)/C=C/c2ccc(F)cc2)cc1` [Compound 62, (2E)-3-(4-Fluorophenyl)-1-[4-(3-methylbut-2-enyloxy)phenyl]propenone] the “anti-invasive activity class act.” value [2] was “>=2 (about 100)”.
In the case of `COc1ccc(C(=O)/C=C/c2ccccc2F)cc1` [Compound 55, (2E)-3-(2-Fluorophenyl)-1-(4-methoxyphenyl)propenone], the “anti-invasive activity class act.” value [2] is reported as 1 (about 10).
With `COc1ccc(C(=O)/C=C/c2cccc(F)c2)cc1` [Compound 54, (2E)-3-(3-Fluorophenyl)-1-(4-methoxyphenyl)propenone] the “anti-invasive activity class act.” value [2] was 1 (about 10).
For “(2E)-1,3-diphenylpropenone [Compound 37]”, the “Actual in vitro activity class” value [2] was 1 (about 10) and the Actual class [2] was 1 (about 10).
In the case of `O=C(/C=C/c1ccc(F)cc1)c1ccc(F)cc1` [Compound 50, (2E)-3-(4-Fluorophenyl)-1-(4-fluorophenyl)propenone], the “Actual in vitro activity class” value [2] is reported as 1 (about 10) and the Actual class [2] is reported as 1 (about 10).
With `COc1cc(OC)c(OC)cc1/C=C/C(=O)c1c(OC)cccc1OC` [Compound 46, (2E)-3-(2,4,5-Trimethoxyphenyl)-1-(2,6-dimethoxyphenyl)propenone] the “Actual in vitro activity class” value [2] was 1 (about 10) and the Actual class [2] was 1 (about 10).
In the case of `O=C(C=Cc1ccco1)c1ccco1` [Compound 70, 1,3-Difuran-2-yl-propenone], the “anti-invasive activity class act.” value [2] is reported as −1 (about 0.1).
With `CC1(C)CCc2c(O)c(C(=O)/C=C/c3cccc([N+](=O)[O-])c3)c3c(c2O1)CCC(C)(C)O3` [Compound 88, (2E)-1-(5-Hydroxy-2,2,8,8-tetramethyl-3,4,9,10-tetrahydro-2H,8H-pyrano[2,3-f]chromen-6-yl)-3-(3-nitro-phenyl)propenone] the “anti-invasive activity class act.” value [2] was “≧3 (>100)”.
